Consider one substance from US20250375467A1, “SUSTAINED RELEASE SILICA HYDROGEL COMPOSITES FOR TREATING OPHTHALMOLOGICAL CONDITIONS AND METHODS OF USING SAME” (ASTELLAS US LLC, priority 2022, published 2025).

On the set-up of the data set: species or system Dutch belted (DB) rabbit. The conditions noted are these: rabbit, in vivo. Here is the method:
The composite formulation (using formulation #11 CSTR-3) prepared as described in Examples 2 and 3, whose in vitro release profile is shown in FIG. 8A and FIG. 8B, was evaluated for ACP release and tissue exposure following IVT administration in the Dutch belted (DB) rabbit. The study design includes bilateral intravitreal dosing of 1.0 mg oligo equivalent in a 50 μL dosing volume of silica composite PK formulation. Two rabbits (4 eyes) were collected at each of the following time points, day 1, 3, 7, 14, 28, 42, 56, and 84. Eyes were dissected, and vitreous humor, retina, and retinal pigment epithelium (RPE)/choroid were collected for tissue specific bioanalytical analysis employing a qualified dual-hybridization assay. The ocular PK (pharmacokinetics) is summarized in FIG. 9 for liquid formulation administered as an IVT bolus dose for vitreous humor and retina tissues as comparator to the sustained release depot PK formulation. The ocular tissue PK for the PK formulation is provided as solid lines for vitreous humor (top line), retina (middle line) and RPE/choroid (bottom line).
At study termination (day 84), the remaining PK formulation depot was recovered from the vitreous humor by centrifugation and analyzed for remaining silica by microwave plasma atomic emission spectroscopy (MP-AES) method and avacincaptad pegol content by a qualified HPLC assay method. […]

avacincaptad pegol [ACP] showed a terminal half-life of 91.2 h.
